Results: US20060263895A1, “Method for monitoring the stereoselectivity and relative rate of organic chemical reactions” (priority 2005, published 2006)

Columns and labels:
[1] = HKR of (±)-propylene oxide under standard neat 'Jacobsen conditions' (NMR conversion, chiral HPLC ee); settings: + = (S), − = (R)
Outline: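 Co(III)-salen catalyst (0.25 mol %) with neat (±)-propylene oxide and water (0.55 equiv.), added at 0° C., then stirred at room temperature, usually 3 h (longer if <5% conversion). Conversion by 1H NMR; diol isolated, derivatized to bis(p-bromobenzoate), ee by chiral HPLC.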

[2] = HKR of (±)-hexene oxide under neat conditions; settings: in 30 min, 2.0 mol % catalyst, 25° C.
Experimental: Co(III)-salen (acetate) catalysts were evaluated for HKR of (±)-hexene oxide, under neat conditions, similar to those described by Jacobsen and co-workers (Schaus, S. E.; Brandes, B. D.; Larrow, J. F.; Tokunaga, M.; Hansen, K. B.; Gould, A. E.; Furrow, M. E.; Jacobsen, E. N. J. Am. Chem. Soc. 2002, 124, 1307-1315). Reactions were stopped after 0.5 h, to obtain the enantiopurity of the 1,2-hexenediol produced at relatively early reaction times, for comparison with biphasic ISES predictions.
A typical procedure follows: To the Co(III)-salen catalyst derived from 1e (16.6 mg, 23.2 μmol, 2.0 mol %) at rt was added (±)-hexene oxide (116 mg, 1.16 mmols). The mixture was cooled to 0° C. Then water (11.4 μL, 0.64 mmols, 0.55 equiv.) was added and the flask was capped tightly and stirred 25° C. for 30 min. The progress of the reaction was estimated by ^1H NMR, the reaction mixture was cooled to 0° C., an aliquot was then withdrawn and dissolved in CDCl3 at 0° C. bath. After distilling over the unreacted epoxide, the diol product was collected, and then itself distilled again by Kugelrohr. When the reaction conversion was more than 50% in 30 min, 15 min reaction time was used (for catalyst 1e) to get the product diol.
To determine ee, the isolated diol was derivatized using p-bromobenzoyl imidazole (2.2 equiv.) in THF in the presence of NaH (4 equiv.) at rt for 5 min. […]

[3] = Double cuvette-ISES (in situ enzymatic screening) of Co(III)-salen mediated HKR of (±)-propylene oxide; settings: catalyst tested at 0.05 mol %; bilayer
Outline: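 Co(III)-salen catalysts (0.25 mol %) in CHCl3 with (±)-propylene oxide (7.2 M in organic layer), overlaid with aqueous reporting layers in 50 mM sodium pyrophosphate, final pH 8.6. Reporters: 0.35 U HLADH/7.2 mM NAD+ ((S)-diol) or 0.35 U TBADH/2.2 mM NADP+ ((R)-diol). A340 increase gives enantioselectivity and relative rate estimates.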

N,N′-Bis(3′,5′-diiodosalicylidene)-[1R-(1α,2α,5α)]-2-amino-7,7-dimethyl-2-bicyclo[3.3.1]heptaneethanamine [Salen 1e]
% ee (HPLC) ([1]; loading 0.25 mol %, reaction stopped at the time given (mostly 3 h)): +28 (S) % ee | % ee of the 1,2-propanediol product, as observed by chiral HPLC (lower number) ([1]; neat propylene oxide, 0.55 equiv. H2O, 0.25 mol % catalyst, 3 h reaction time): +28 % ee | reaction conversion [2]: more than 50% | % ee of the 1,2-propanediol product, as predicted by double-cuvette ISES (upper number) [3]: +47 % ee
